Measurements as given in PMC10779433, “Bidirectional Allosteric Coupling between PIP2 Binding and the Pore of the Oncochannel TRPV6” (International Journal of Molecular Sciences, 2024).
No end group written: not given here. *: point of attachment. Palmitoyl = CCCCCCCCCCCCCCCC(=O)*

Legend:
TRPV6 = conditions: physiologically relevant concentrations; ref [19],[59]; cited from earlier work
TRPV6 WT = target: T1, TRPV6 WT (Homo sapiens, UniProt Q9H1D0); test: Fura-2 Ca2+ imaging, TRPV6 WT; assay type: cell-based; conditions: HEK293 cells; 20 μM control peptide; effect likely attributable to ongoing channel inactivation
T1 construct: expressed in transfected cells; host or cells: HEK293 cells, transient transfection
T1 sequence (Q9H1D0 41-765 limits assumed): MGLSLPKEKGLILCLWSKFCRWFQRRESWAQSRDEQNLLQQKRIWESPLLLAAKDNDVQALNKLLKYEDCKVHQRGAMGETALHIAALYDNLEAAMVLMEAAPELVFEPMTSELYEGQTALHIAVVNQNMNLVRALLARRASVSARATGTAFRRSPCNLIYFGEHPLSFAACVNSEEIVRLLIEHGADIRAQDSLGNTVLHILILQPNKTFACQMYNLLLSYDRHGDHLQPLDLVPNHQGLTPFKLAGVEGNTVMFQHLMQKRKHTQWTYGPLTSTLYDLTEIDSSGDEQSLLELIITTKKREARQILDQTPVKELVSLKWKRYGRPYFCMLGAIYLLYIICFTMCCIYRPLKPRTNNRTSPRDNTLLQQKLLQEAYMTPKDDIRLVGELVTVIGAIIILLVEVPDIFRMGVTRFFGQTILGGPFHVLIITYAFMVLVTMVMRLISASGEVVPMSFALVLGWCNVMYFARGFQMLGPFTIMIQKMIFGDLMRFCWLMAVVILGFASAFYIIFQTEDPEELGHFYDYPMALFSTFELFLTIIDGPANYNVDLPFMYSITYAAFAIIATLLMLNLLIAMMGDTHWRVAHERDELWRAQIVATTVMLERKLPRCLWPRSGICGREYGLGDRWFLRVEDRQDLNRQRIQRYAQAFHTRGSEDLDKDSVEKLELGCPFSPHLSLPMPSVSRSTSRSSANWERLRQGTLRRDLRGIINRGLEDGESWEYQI

## phosphatidylinositol-4-phosphate [PI(4)P]
TRPV6
  activation of TRPV6: does not activate TRPV6

## Palmitoyl-HAQKHFEAAA [control peptide, palmitoylated peptide having four of the basic residues of the pal-PIP2 peptide replaced by alanine]
TRPV6 WT
  decrease in cytosolic Ca2+ level (in words): slow, continuous reduction
